In patent US20020086278A1, “CHROMOGENIC MEDIA CONTAINING BLOOD OR HEMIN” (priority 1999, published 2002):

What was measured:
[1] = test system: N. sicca 29193; experiment: Example 2: effect of incubation conditions on colony color formation; type: cell-based
[2] = test system: Group B Strep. 12386; experiment: Example 1: growth and colony color on plates surface-spread with chromogen; type: cell-based; conditions: for Growth: Group B Strep 12386
[3] = test system: S. epidermidis 12228; experiment: as above; type: cell-based; conditions: Summary of Table I; S. epidermidis 12228
[4] = test system: Streptococcus pneumoniae 6303; experiment: as above; type: cell-based
[5] = test system: N. sicca 29193; experiment: as above; type: cell-based
[6] = test system: Gardnerella vaginalis 14019; experiment: as above; type: cell-based; conditions: Summary of Table I; G. vaginalis 14014
[7] = test system: N. gonorrhoeae 35201; experiment: as above; type: cell-based; conditions: Summary of Table I; N. gonorrhoeae 35201
[8] = test system: bacterial test strains of Example 1; experiment: Example 1: inhibitory effect over all test strains; type: cell-based; conditions: Example 1, all test strains
[9] = test system: Branhamella catarrhalis 25238; experiment: Example 1: growth and colony color on plates surface-spread with chromogen; type: cell-based; conditions: for Growth: B. catt 25258
[10] = test system: S. aureus 25923; experiment: Example 2: effect of incubation conditions on colony color formation; type: cell-based, Staphylococcus aureus
[11] = test system: Staphylococcus aureus 25923; experiment: Example 1: growth and colony color on plates surface-spread with chromogen; type: cell-based; conditions: S. aureus 25923
[12] = Color contrast of chromogen on blood plate

5-Br-4-Cl-3-indolyl-caprylate [X-Cap]
Colony Color [1]: blue (m) | Growth ([2]; Choc II): << | Substrates Producing Growth Inhibition ([2]; Summary of Table I, Group B Strep. 12386): Slight inhib. w/ X- | Growth ([2]; TSA II 5SB): < | Substrates Producing Growth Inhibition [3]: X-Cap | Substrates Producing Growth Inhibition ([4]; Summary of Table I, S. pneumoniae 6303): X-Cap | Growth ([4]; TSA II 5SB, S. pneu: 6303): < | Color ([5]; Substrate on Choclate II Agar, N. sicca. 29193): blue | Substrates Producing Color ([5]; Summary of Table I, N. sicca 29193): X-cap | Substrates Producing Growth Inhibition [6]: X-Cap | Substrates Producing Growth Inhibition [7]: X-Cap | Inhibitory effect [8]: most inhibitory effect | Growth ([9]; Choc II): < | Substrates Producing Growth Inhibition ([9]; Summary of Table I, B. catarrhalis 25238): X-Cap | Growth ([9]; TSA II 5SB): < | Colony Color [10]: blue (l) | Color ([11]; Choc II): turquoise | Substrates Producing Color ([11]; Summary of Table I): X-Cap | Color ([11]; TSA II 5SB): turquoise | Color ([11]; TSA Plain): turquoise

Oc1c[nH]c2ccc(Br)c(Cl)c12 [5-Bromo-4-chloro-3-indoxyl]
Absorption max (nm) [12]: 615 nm
